The values below come from patent publication US12018024B2, “Compounds and compositions for the treatment of cryptosporidiosis” (Novartis AG, priority 2020, dated 2024).

A word on the IC50: it is the concentration that inhibits the measured activity by half. For orientation: EC50 means the concentration that produces a half-maximal response.

Where two headings read alike, the source gives them in different places.

One assay concerns the target C. parvum PI(4)K (Cryptosporidium parvum, UniProt Q5CVD3). Kind of assay: CpPI(4)K enzymatic assay (Transcreener ADP2 FP). Format: biochemical. From the text:
Baculovirus expression and purification of C. parvum phosphatidylinositol 4-kinase: The full-length coding sequence of C. parvum PI(4)K (cgd8_4500, 1114 amino acids) was codon-optimized for baculovirus expression, synthesized and cloned into pFastBac-HTb (Invitrogen 10584-027) in frame with the amino-terminal polyhistidine tag using the BamHI and HindIII restriction sites. Recombinant pFastBacHTb-CpPI(4)K bacmid clones were generated by site-specific transposition in E. coli DH10Bac (Invitrogen 10361-012). The bacmid sequence was confirmed by direct DNA sequencing to confirm a lack of mutations across the whole gene. The subsequent steps for bacmid isolation, transfection and selection of the recombinant viruses were performed according to the manufacturer's protocol (Bac-to-Bac system #10359, Invitrogen).
SF9 cells, cultured in […] serum-free medium, were transfected with recombinant baculovirus at 1/200 (v/v) and incubated at 27° C. for 72 h. The pellets were collected after centrifugation and re-suspended in cell lysis buffer (20 mM Tris-HCl, pH 7.5, 300 mM NaCl, 1 mM DTT, 20 mM imidazole, 0.01% Triton X-100 and 1× complete protease inhibitor cocktail without EDTA (Roche Diagnostics 04693116001)). The cell suspension was lysed by sonication and the clarified supernatant was loaded onto a 1 ml HisTrap affinity column (GE Healthcare) pre-equilibrated with buffer A (20 mM Tris-HCl, pH 7.5, 300 mM NaCl, 1 mM DTT, 20 mM Imidazole, and 1× complete protease inhibitor cocktail without EDTA). The column was washed with buffer B (buffer A containing 45 mM imidazole) and the bound protein of interest was eluted with buffer C (buffer A with 90 mM imidazole). The fractions containing CpPI(4)K were pooled, concentrated using Amicon Ultra-15 and purified by a gel-filtration column (Hi-Load 26/60 Superdex 200, GE Healthcare) equilibrated with 20 mM Tris, pH 7.5, 300 mM NaCl, 1 mM DTT and 1× protease inhibitor cocktail without EDTA. The concentrations of the purified protein (Mw 132.39 kda) was determined by using the protein molar extinction coefficient (ε280 nm=133,810 M^−1 cm^−1). Aliquots were flash frozen in liquid nitrogen and immediately stored at −80° C.
PI(4)K enzymatic Assay The CpPI(4)K enzymatic assay was performed as described earlier with a some modifications (McNamara et al., 2013). Briefly, L-α-phosphatidylinositol (Avanti Polar Lipid 840046), dissolved in 3% n-octylglucoside (Roche Diagnostics 10634425001), was used as the lipid substrate for the PI(4)K activity assay. CpPI(4)K was assayed using Transcreener ADP2 FP detection kit (BellBrook 3010) in a black, solid 384-well plate (Corning 3575). The final assay volume was 10 μl and contained 3 nM of the respective CpPI(4)K construct in 10 mM Tris, pH 7.5, 1 mM DTT, 3 μM ATP, 5 mM Mn2+, 0.05% Triton X-100 and 10 μM phosphatidylinositol/octylglucoside. The enzyme reaction was performed for 50 minutes at room temperature and was stopped by adding 10 μl of detection mix containing 1× stop buffer (50 mM HEPES, pH7.5, 400 mM NaCl, 20 mM EDTA, and 0.02% Brij-35), 2 nM AMP Alexa Fluor 633 tracer, and 20 μg ml^−1 ADP antibody. Fluorescence polarization measurements were performed on the Infinite M1000 plate reader (Tecan) with λex=635 nm and λem=680 nm (20-nm bandwidth). IC50 values were calculated using Graphpad Prism software.

For a further assay, the system named is Cryptosporidium parvum. Kind of assay: Cytopathic effect (CPE) based assay, C. parvum-infected HCT-8 cells. Format: cell-based. Particulars: HCT-8, 48 h, read-out: (b) C.p.* CPE EC50 (μM). As for the experimental part: (§1) Human ileocecal colorectal adenocarcinoma cells (HCT-8 [HRT-18] ATCC, CCL-34) were maintained in T-175 flasks (Corning, 431080) in complete growth medium (RPMI-1640 medium (Gibco, 11875) supplemented with 10% heat-inactivated horse serum (Gibco, 26050), 1× MEM non-essential amino acids (Gibco, 11140), 10 mM HEPES (Gibco, 15630), 100 units/mL penicillin, and 100 units/mL streptomycin) at 37° C. and 5% CO2 in a humidified incubator. Cultures were passaged twice weekly using 10 mL of 1× Phosphate-Buffered Saline (PBS) without Ca^2+ and Mg^2+ (Gibco, 20012) for washing and 3-5 mL per T-175 flask of TrypLE Express Enzyme (Gibco, 12604) for dissociation of adherent cells.
Cryptosporidium parvum oocysts purchased from the Sterling Laboratory, University of Arizona (Iowa isolate) were purified from infected calf feces using discontinuous sucrose and cesium chloride centrifugation gradients and stored in PBS solution containing 0.01% Tween 20, 100 units/mL penicillin and 100 units/mL gentamicin.
(§2) Excystaion and infection: Excystation and infection protocols were developed following established methods with some modifications (Gut & Nelson, 1999, Upton et al., 1995, Bessoff et al., 2013). Briefly, oocysts were primed in 1 mL of 10 mM hydrochloric acid in 1× Hank's Balanced Salt Solution (HBSS) (Gibco, 14025) for 10 minutes with agitation at 1000 rpm, 37° C. on an Eppendorf thermomixer, then washed twice with 1 mL of room temperature non-acidic 1× HBSS by centrifugation at 13,000 rpm for 3 minutes at 25° C. Primed oocysts were further excysted at a concentration of 1×10^6 oocysts/μL in parasite infection medium consisting of a pre-warmed and pre-gassed 1:1 formulation of Leibovitz's L-15 medium (Gibco, 11415) and UltraCULTURE medium (Lonza, 12-725F) supplemented with 2 mM sodium taurocholate (Sigma, 86339-1), 10% heat-inactivated horse serum, and 200 μM L-ascorbic acid (Sigma, 95210) at 25° C. for 10 minutes. HCT-8 monolayer cells were infected with excysted cryptosporidium at a specified multiplicity of infection (MOI). All dilutions for subsequent assays were performed in parasite infection medium without sodium taurocholate. Pre-excysted oocysts were enumerated microscopically using a C-Chip disposable hemocytometer (NanoEnTek, DHC-N01).
Compound and assay plate preparation: Compound powders were dissolved in neat DMSO (Fisher, D4121) to 10 mM and stored at 4° C. prior to dilution into source plates. Dilutions were carried out using a Microlab STAR liquid handler (Hamilton) to obtain compound source plates containing the ten-point or eight-point three fold dilutions starting from 10 mM in duplicates. Source plates were stored at 4° C. prior to spotting into assay plates. Before administration, all compound source plates were equilibrated to room temperature. A specified volume of compounds from source plate were spotted to assay plate using an Echo Acoustic liquid handler (LABCYTE, 550) so that the final DMSO concentration was less than 0.5%. Each assay plate a specified number of DMSO-treated negative control wells and a well-studied potent active compound at 100 nM as positive control. As a quality control, all positive and negative-control wells were used to calculate a Z′-value and signal to noise ratio (S:N) for each plate.
Cryptosporidium spp are obligate-intracellular parasites that infect intestinal epithelial cells and the host cell is killed upon parasite egress. […] The loss of epithelial cells is due to both rapid parasite invasion/multiplication/egress and also pro-inflammatory immune response (Adams et al., 1994, Griffiths et al., 1994). We have observed a consistent cytopathic effect (CPE) in HCT-8 cells with C. spp infection the loss of viability of the host cells using CellTiter-Glo reagent.
Confluent HCT-8 cells in T-175 flasks were directly infected with excysted oocysts at an MOI (host to parasite) of 1:2 for C. parvum and 1:4 for C. hominis. […]

In another assay the test system is Cryptosporidium hominis. Kind of assay: Cytopathic effect (CPE) based assay, C. hominis-infected HCT-8 cells. Format: cell-based. As for the experimental part: as §1
Cryptosporidium hominis oocysts were purchased from the Tufts University Cummings School of Veterinary Medicine (courtesy of Dr. Saul Tzipori). C. hominis oocysts were purified from infected gnotobiotic piglet feces and stored in PBS solution containing 0.01% Tween-20, 100 units/mL penicillin and 100 units/mL gentamicin. C. parvum and C. hominis oocysts less than three months old from the date of shedding were used in infection experiments.
as §2
Compound and assay plate preparation: Compound powders were dissolved in neat DMSO (Fisher, D4121) to 10 mM and stored at 4° C. prior to dilution into source plates. Dilutions were carried out using a Microlab STAR liquid handler (Hamilton) to obtain compound source plates containing the ten-point or eight-point three fold dilutions starting from 10 mM in duplicates. […]

In the next assay the target is H.s. PI(4)K (Homo sapiens, UniProt Q9UBF8). Kind of assay: H.s. PI(4)K IC50. Format: biochemical. Particulars: read-out: (d) H.s.* PI(4)K IC50.
Sequence of H.s. PI(4)K (Q9UBF8 2-816 limits assumed): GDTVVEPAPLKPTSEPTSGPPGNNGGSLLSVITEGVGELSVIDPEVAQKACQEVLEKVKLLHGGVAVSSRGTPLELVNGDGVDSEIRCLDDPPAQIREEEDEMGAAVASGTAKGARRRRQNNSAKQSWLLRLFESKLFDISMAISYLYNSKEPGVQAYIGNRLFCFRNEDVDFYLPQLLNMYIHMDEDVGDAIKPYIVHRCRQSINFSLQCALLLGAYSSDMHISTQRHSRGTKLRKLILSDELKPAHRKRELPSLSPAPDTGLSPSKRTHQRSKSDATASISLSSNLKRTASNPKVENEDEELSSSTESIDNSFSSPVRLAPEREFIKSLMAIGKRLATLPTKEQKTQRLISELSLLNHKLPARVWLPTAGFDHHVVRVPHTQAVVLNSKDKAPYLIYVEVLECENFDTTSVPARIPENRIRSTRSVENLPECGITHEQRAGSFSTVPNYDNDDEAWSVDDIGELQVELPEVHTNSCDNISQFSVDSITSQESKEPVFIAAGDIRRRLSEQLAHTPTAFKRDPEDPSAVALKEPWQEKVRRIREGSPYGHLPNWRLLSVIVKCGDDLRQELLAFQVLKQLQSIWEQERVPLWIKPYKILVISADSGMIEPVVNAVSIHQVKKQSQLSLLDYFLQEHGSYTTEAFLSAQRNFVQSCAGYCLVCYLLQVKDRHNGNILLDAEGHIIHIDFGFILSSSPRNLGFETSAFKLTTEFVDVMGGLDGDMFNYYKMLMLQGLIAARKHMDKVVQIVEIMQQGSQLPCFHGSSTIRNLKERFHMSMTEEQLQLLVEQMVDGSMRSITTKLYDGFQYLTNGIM
Setting [1] is: HCT-8 host cells, 48 hours treatment, CellTiter-Glo, read-out: (c) C.h.* CPE EC50.

Sequence of C. parvum PI(4)K (Q5CVD3 entry or part of it): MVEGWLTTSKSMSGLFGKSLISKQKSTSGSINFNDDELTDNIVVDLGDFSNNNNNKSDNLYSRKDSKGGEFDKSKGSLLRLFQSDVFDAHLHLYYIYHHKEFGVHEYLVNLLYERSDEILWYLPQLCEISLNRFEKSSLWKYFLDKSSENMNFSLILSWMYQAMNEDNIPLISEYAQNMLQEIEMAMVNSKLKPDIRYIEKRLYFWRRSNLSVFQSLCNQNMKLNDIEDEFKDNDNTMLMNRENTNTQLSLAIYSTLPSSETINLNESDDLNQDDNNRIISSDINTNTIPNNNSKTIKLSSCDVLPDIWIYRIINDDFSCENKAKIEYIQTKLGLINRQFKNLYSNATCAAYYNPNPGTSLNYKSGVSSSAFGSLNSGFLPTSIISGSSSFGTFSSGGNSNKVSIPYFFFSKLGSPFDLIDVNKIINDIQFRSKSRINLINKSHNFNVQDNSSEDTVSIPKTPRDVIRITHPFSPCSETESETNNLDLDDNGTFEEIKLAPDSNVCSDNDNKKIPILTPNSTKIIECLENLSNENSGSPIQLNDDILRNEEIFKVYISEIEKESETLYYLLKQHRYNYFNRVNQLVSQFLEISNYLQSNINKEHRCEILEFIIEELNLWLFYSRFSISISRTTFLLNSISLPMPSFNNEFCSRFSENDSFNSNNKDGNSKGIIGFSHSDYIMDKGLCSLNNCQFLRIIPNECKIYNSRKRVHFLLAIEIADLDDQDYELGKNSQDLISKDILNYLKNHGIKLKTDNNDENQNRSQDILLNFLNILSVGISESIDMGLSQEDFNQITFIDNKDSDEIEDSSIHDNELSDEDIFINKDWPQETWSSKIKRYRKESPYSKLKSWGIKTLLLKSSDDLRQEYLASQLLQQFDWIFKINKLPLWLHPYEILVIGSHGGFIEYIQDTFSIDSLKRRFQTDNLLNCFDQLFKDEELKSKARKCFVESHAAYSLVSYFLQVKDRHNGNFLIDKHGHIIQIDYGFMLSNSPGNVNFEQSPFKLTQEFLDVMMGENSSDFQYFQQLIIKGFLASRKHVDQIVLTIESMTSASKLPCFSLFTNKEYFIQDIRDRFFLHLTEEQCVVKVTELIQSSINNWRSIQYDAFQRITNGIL

`COC(=O)c1cc(N(C)C(=O)c2ccn3ncc(-c4ccc(C(N)=O)cc4)c3c2)ccc1Cl` [Example 1.01, Methyl 5-(3-(4-carbamoylphenyl)-N-methylpyrazolo[1,5-a]pyridine-5-carboxamido)-2-chlorobenzoate]: the values for the IC50 at C. parvum PI(4)K and on H.s. PI(4)K were below 100 nM and 100 to 1000 nM, respectively. For the same compound, the EC50 in the assay on Cryptosporidium parvum and in the assay on Cryptosporidium hominis (setting [1]) was below 0.1 µM throughout.
Consider `CNC(=O)c1ccc(-c2cnn3ccc(C(=O)N(C)c4ccc(Cl)c(C(=O)OC)c4)cc23)cc1` [Example 1.16, Methyl 2-chloro-5-(N-methyl-3-(4-(methylcarbamoyl)phenyl)pyrazolo[1,5-a]pyridine-5-carboxamido)benzoate], for which the IC50 on C. parvum PI(4)K is below 100 nM; on H.s. PI(4)K it was 100 to 1000 nM. The EC50 in the assay on Cryptosporidium parvum is below 0.1 µM; in the assay with Cryptosporidium hominis (HCT-8, 48 h, read-out: (c) C.h.* CPE EC50 (μM)), below 0.1 µM.
Regarding `CNC(=O)c1ccc(-c2cnn3cnc(C(=O)N(C)c4ccc(Cl)c(C(=O)OC)c4)cc23)cc1` [Example 3.1, Methyl 2-chloro-5-(N-methyl-3-(4-(methylcarbamoyl)phenyl)pyrazolo[1,5-c]pyrimidine-5-carboxamido)benzoate], the IC50 is below 100 nM at C. parvum PI(4)K and above 1000 nM on H.s. PI(4)K. The EC50 in the assay on Cryptosporidium parvum and with Cryptosporidium hominis (setting [1]) was 0.1 to 1 µM in each case.
In the case of `COC(=O)c1cc(Cl)ccc1N(C)C(=O)c1ccn2ncc(-c3ccc(C(N)=O)cc3)c2c1` [Example 4.1, Methyl 2-(3-(4-carbamoylphenyl)-N-methylpyrazolo[1,5-a]pyridine-5-carboxamido)-5-chlorobenzoate], the IC50 is below 100 nM against C. parvum PI(4)K and 100 to 1000 nM at H.s. PI(4)K. Further, the EC50 in the assay on Cryptosporidium parvum and with Cryptosporidium hominis (setting [1]) was below 0.1 µM in each case.
